Test systems include KM-20L2; DLD-1; M19-MEL; XF498; SNB-78; DMS-114; HOP-18; LXFL 529; RXF 631.
Assay in all cases: NCI tumour cell line growth inhibition, 48 h

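Five concentrations, 48 hours, 96-well plates. GI50 marks 50% less growth.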 Calls of active or inactive are those of the source. No stated cut-off is given here; in the data, active = GI50 up to about 1.1 µM and inactive = higher.

Regarding `COc1ccc(CC2C(=O)NC(C)C(=O)N(C)C3Cc4ccc(cc4)Oc4cc(ccc4O)CC(C(=O)NC(C)C(=O)NC(C)C(=O)N2C)N(C)C3=O)cc1` (centres undefined), the GI50 with KM-20L2 was 0.0175 µM (active); in the assay with DLD-1, 0.0469 µM (active); with M19-MEL it was 0.0175 µM (active); in the assay with XF498, 0.0175 µM (active); in the assay with SNB-78 it was 0.0175 µM (active).
`NC1CCCCC1.O=C(O)C1(P(=O)(O)O)CC1`: the GI50 in the assay on KM-20L2, in the assay with DMS-114, with DLD-1, with HOP-18, with M19-MEL and in the assay on XF498 was > 100 µM (inactive) throughout. The GI50 in the assay on LXFL 529 and with SNB-78 was > 100 µM (inactive) throughout.
Turning to `CC(=O)OC1COC(n2c(=S)n(-c3ccc(C)cc3)c(=O)c3ccccc32)C(OC(C)=O)C1OC(C)=O` (centres undefined), the GI50 is > 100 µM (inactive) in the assay with KM-20L2; > 100 µM (inactive) in the assay on DMS-114; > 100 µM (inactive) in the assay with DLD-1; > 100 µM (inactive) with HOP-18; 68.9 µM (inactive) in the assay with RXF 631; > 100 µM (inactive) with M19-MEL. In addition, the results for the GI50 with XF498, with LXFL 529 and in the assay on SNB-78 were > 100 µM (inactive), 58.3 µM (inactive) and > 100 µM (inactive), respectively.
With `O=S(=O)(N/N=C/c1cccc(/C=N/NS(=O)(=O)c2ccccc2)c1)c1ccccc1`, the GI50 with KM-20L2 is > 100 µM (inactive); with DMS-114, 47.4 µM (inactive); in the assay with DLD-1, 81.5 µM (inactive); with HOP-18, 91 µM (inactive); with RXF 631, 73.8 µM (inactive); with M19-MEL, > 100 µM (inactive). Moreover, the GI50 in the assay with LXFL 529 was 39 µM (inactive); with SNB-78 it was > 100 µM (inactive).
Turning to `CC(C)OC(=O)c1cccnc1/C=N/O`, the GI50 with KM-20L2, in the assay with DMS-114, in the assay with DLD-1, in the assay on M19-MEL, in the assay on XF498 and in the assay on LXFL 529 was > 100 µM (inactive) throughout. For the same molecule, the GI50 in the assay on SNB-78 is > 100 µM (inactive).
Take `CCC1CCCCN1CC(C(C)=O)C(c1ccccc1)c1c(O)c2ccccc2oc1=O` (centres undefined): the GI50 in the assay on KM-20L2, with DMS-114, with DLD-1, in the assay with RXF 631, with M19-MEL and in the assay on XF498 was > 100 µM (inactive) in each case. The GI50 in the assay with SNB-78 was > 100 µM (inactive).
In the case of `CCOC(=O)/C=C1\CCCC12OCCO2`, the GI50 is > 100 µM (inactive) in the assay with KM-20L2; 85.5 µM (inactive) in the assay on DMS-114; 89.3 µM (inactive) in the assay on DLD-1; > 100 µM (inactive) in the assay on HOP-18; > 100 µM (inactive) in the assay with M19-MEL; > 100 µM (inactive) in the assay with LXFL 529. In addition, the GI50 in the assay on SNB-78 was > 100 µM (inactive).
Consider `COc1cc(/C=C2/C(=O)N(C(=O)OCC(C)C)C(Cc3cc(OC)c(OC)c(C)c3OC)C(=O)N2Cc2ccccc2)c(OC)c(C)c1OC` (centres undefined), for which the GI50 is > 100 µM (inactive) in the assay on KM-20L2; 23.1 µM (inactive) in the assay with DMS-114; 84.3 µM (inactive) with DLD-1; > 100 µM (inactive) with HOP-18; > 100 µM (inactive) in the assay with RXF 631; > 100 µM (inactive) in the assay on M19-MEL. Further, the GI50 with LXFL 529 was 5.57 µM (inactive).
`N#C/C(=C1\SC(C(N)=O)=C(N)N1c1ccccc1)c1nc2ccccc2[nH]1`: the GI50 in the assay with KM-20L2, with DMS-114, in the assay on DLD-1, in the assay on M19-MEL, with XF498 and in the assay on LXFL 529 was > 100 µM (inactive) each time. Moreover, the GI50 with SNB-78 was 44.4 µM (inactive).
In the case of `S=C1ON=C(c2ccccc2)/C1=C/Nc1ccccc1`, the GI50 in the assay on DMS-114 is > 100 µM (inactive); with DLD-1 it was 37.2 µM (inactive); in the assay on HOP-18, < 0.01 µM (active); in the assay with XF498, > 100 µM (inactive); with LXFL 529, > 100 µM (inactive); with SNB-78, > 100 µM (inactive).
Take `O=c1c(C(c2ccc([N+](=O)[O-])cc2)c2c(O)c3ccccc3n(-c3ccccc3)c2=O)c(O)c2ccccc2n1-c1ccccc1`: the GI50 in the assay on KM-20L2 was 27.2 µM (inactive); with DMS-114, 20.3 µM (inactive); in the assay with DLD-1 it was 6.41 µM (inactive); with HOP-18 it was 2.4 µM (inactive); in the assay on RXF 631, 14.7 µM (inactive); in the assay with M19-MEL, 32.5 µM (inactive). Also, the GI50 in the assay with XF498 was 19.7 µM (inactive); in the assay on LXFL 529, 8.05 µM (inactive); in the assay on SNB-78, 21.7 µM (inactive).
With `CC1=CCCC2C1(C)CCC(C)C2(C)Cc1cc(O)ccc1O` (centres undefined), the GI50 in the assay on KM-20L2 is 10.8 µM (inactive); with DMS-114, 4.2 µM (inactive); in the assay with DLD-1, 6.34 µM (inactive); in the assay on HOP-18, 19.2 µM (inactive); in the assay on M19-MEL, 5.57 µM (inactive); in the assay with XF498, 7.23 µM (inactive). Further, in the assay with SNB-78, the GI50 was 2.59 µM (inactive).
On to `CNC(C)(C)Cc1ccc(Cl)cc1`, for which the GI50 in the assay on KM-20L2 is > 100 µM (inactive); in the assay on DMS-114 it was > 100 µM (inactive); in the assay with DLD-1, > 100 µM (inactive); with M19-MEL, > 100 µM (inactive); in the assay with XF498, 34.7 µM (inactive); in the assay on LXFL 529, > 100 µM (inactive).
Consider `NC(=O)C(=O)C1C(=O)N(c2ccccc2)N=C1N` (centres undefined), for which the GI50 in the assay on KM-20L2, in the assay on DLD-1, in the assay with XF498, in the assay on LXFL 529 and in the assay with SNB-78 was > 100 µM (inactive) each time.
With `CC(C)C(C(=O)O)N(CC1(O)OCC(O)C(O)C1O)N=O` (centres undefined), the GI50 in the assay on KM-20L2, with DMS-114, in the assay with DLD-1, in the assay with RXF 631, with M19-MEL and in the assay on XF498 was > 100 µM (inactive) each time. In addition, the GI50 with LXFL 529 and in the assay with SNB-78 was > 100 µM (inactive) throughout.
In the case of `CSc1nc2c(nc(N)n2C2OC(COC(C)=O)C(OC(C)=O)C(OC(C)=O)C2OC(C)=O)c(=O)n1C` (centres undefined), the GI50 in the assay on KM-20L2, in the assay on DMS-114, in the assay with DLD-1, with HOP-18, in the assay with RXF 631 and in the assay on XF498 was > 100 µM (inactive) each time. Moreover, the GI50 in the assay on LXFL 529 and in the assay on SNB-78 was > 100 µM (inactive) in each case.
For the molecule `CC(C)(C)NCC(COc1ccc([N+](=O)[O-])cc1)OP(c1ccccc1)c1ccccc1` (centres undefined), the GI50 was 36.4 µM (inactive) with KM-20L2; 23 µM (inactive) with DMS-114; 27.8 µM (inactive) in the assay on DLD-1; 40.6 µM (inactive) in the assay on M19-MEL; 22.5 µM (inactive) in the assay with XF498; 19.3 µM (inactive) in the assay with LXFL 529. Also, the GI50 with SNB-78 is 25.9 µM (inactive).
As to `O=C(CC(=O)c1cccc2ccccc12)C(=O)Nc1nccs1`, the GI50 in the assay on KM-20L2, in the assay on DLD-1, in the assay on HOP-18, in the assay on M19-MEL, with LXFL 529 and with SNB-78 was > 100 µM (inactive) in each case.
Take `CN(C)CC1(C)CC/C(=C\c2ccc3c(c2)OCO3)C1=O` (centres undefined): the GI50 in the assay on KM-20L2 was 3.72 µM (inactive); with DMS-114, 57.4 µM (inactive); with DLD-1, > 100 µM (inactive); in the assay with HOP-18, > 100 µM (inactive); in the assay with M19-MEL, > 100 µM (inactive); in the assay on XF498, > 100 µM (inactive). Further, the GI50 in the assay with LXFL 529 and in the assay with SNB-78 was > 100 µM (inactive) throughout.
Regarding `Clc1ccc2c(c1)-c1c3c(nn1-c1ccccc1)-c1ccccc1SC3O2` (centres undefined), the GI50 in the assay with KM-20L2 is > 100 µM (inactive); with DMS-114, 56.1 µM (inactive); in the assay with HOP-18, > 100 µM (inactive); in the assay with M19-MEL, > 100 µM (inactive); in the assay with XF498 it was > 100 µM (inactive); in the assay with LXFL 529, > 100 µM (inactive). In the assay on SNB-78, the GI50 was > 100 µM (inactive).
As for `NC1CCC2(O)c3ccccc3C2C1` (centres undefined), the GI50 with KM-20L2, with DMS-114, in the assay with HOP-18, in the assay on M19-MEL, in the assay on XF498 and with LXFL 529 was > 100 µM (inactive) in each case. Besides, the GI50 in the assay on SNB-78 is > 100 µM (inactive).
Take `Cc1ccc(/N=N/c2c(C)nn(-c3ccccc3)c2-c2ccccc2)c(Br)c1`: the GI50 in the assay on KM-20L2 was > 100 µM (inactive); in the assay on DLD-1, 57.4 µM (inactive); with HOP-18 it was > 100 µM (inactive); in the assay with RXF 631, 34.4 µM (inactive); in the assay with M19-MEL, 55.1 µM (inactive); in the assay with LXFL 529, 87.9 µM (inactive).
For the molecule `CC1C=CC(C)C2(O)C(=O)NC(O)C12` (centres undefined), the GI50 in the assay on KM-20L2, in the assay with DMS-114, in the assay on DLD-1, in the assay with HOP-18, with RXF 631 and with M19-MEL was > 100 µM (inactive) in each case. The GI50 in the assay with LXFL 529 and with SNB-78 was > 100 µM (inactive) in each case.
In the case of `NC(N)=NN/C(=C1/N=c2ccc([N+](=O)[O-])cc2=NC1=O)C(O)c1ccco1` (centres undefined), the GI50 was > 100 µM (inactive) with KM-20L2; 27.5 µM (inactive) in the assay with DMS-114; > 100 µM (inactive) in the assay with DLD-1; > 100 µM (inactive) in the assay with HOP-18; > 100 µM (inactive) with M19-MEL; > 100 µM (inactive) with XF498. Also, the GI50 with LXFL 529 was 92.7 µM (inactive); in the assay with SNB-78, > 100 µM (inactive).
Consider `c1ccc2c(NCCCCCCNc3c4ccccc4nc4ccccc34)c3ccccc3nc2c1`, for which the GI50 in the assay with KM-20L2 was 0.0785 µM (active); with DMS-114, 0.366 µM (active); with DLD-1 it was 0.291 µM (active); with HOP-18 it was 2.91 µM (inactive); in the assay with M19-MEL it was 1.09 µM (active); in the assay with XF498, 1.41 µM (inactive). The GI50 was 0.155 µM (active) in the assay with LXFL 529 and 0.498 µM (active) in the assay on SNB-78.

(Values after ChEMBL document CHEMBL1201862, “PubChem BioAssay data set” (2004).)
